Consider two compounds from patent US6569638B1, “Method for screening compounds for the treatment of neoplasia” (Cell Pathways, Inc, priority 2000, dated 2003).

Data set [1] deals with PKG in HCT116 colon cancer cells. Description: PKG assay of drug-treated cell lysates. Format: cell-based, human. The note with it: HCT116 cells (β-catenin mutation, no APC mutation). The text has this:
To test the effect of cGMP-specific PDE inhibition on neoplasia containing the β-catenin mutation, HCT116 colon cancer cells were employed. HCT116 is known to contain the β-catenin mutation, but is known not to contain the APC mutation.
The same procedure is used to grow the HCT116 cells as is used in the SW480 procedure described above. In this experiment, only exisulind and controls were used.

Data set [2] concerns adenomatous polyposis coli polyps. The data set can be described thus: Clinical prevention trial of polyp formation in APC patients. Format: in vivo, human. The text has this:
The first clinical trial involved patients with APC using exisulind. In that study, each patient had already had his/her colon removed, except for a small section of colon adjacent the rectum (where the small intestine was attached) to preserve rectal function. However, such a patient commonly forms polyps in the small remaining colonic section, which polyps require periodic removal (e.g., by electrocautery).
That trial where exisulind was selected was a prevention trial designed to evaluate the anti-neoplastic characteristics of the drug by comparing the cumulative number of new polyps formed over twelve months by the drug and placebo groups. Eligible patients were those who form between 9 and 44 polyps per year. Patients were fully ablated (had all polyps removed) at the start of the study, at the end of 6 months and at the end of 12 months. The study enrolled thirty-four eligible patients. […] Based on the median number of polyps produced in the first six months of the study, patients treated with exisulind developed approximately one-third the number of polyps as patients treated with placebo (median values 9 polyps/year and 26 polyps/year, respectively; p=0.013). […]

The test system of the next data set is SW-620. Description: Neutral red growth inhibition. Format: cell-based, human. The note with it: SW-620, Colon, free base. The method, then:
(§1) Compound B's activity is not confined to activity against colon cancer cell lines or animal models of colon cancer. It has a broad range of anti-neoplastic effects in various neoplastic cell lines. Various types of human cancer cell lines were propagated under sterile conditions in RPMI 1640 medium with 10% fetal bovine serum, 2 mM L-glutamine and sodium bicarbonate. To determine growth inhibitory effects of Compound B, cells were seeded in 96-well plates at a density of 1000 cells per well. Twenty-four hours after plating, the cells were dosed with various concentrations of the free base of Compound B solubilized in DMSO (final concentration 0.1%). The effect of the drug on tumor cell growth was determined using the neutral red cytotoxicity assay following five days of continuous treatment. Neutral red is a dye that is selectively taken up by viable cells by an ATP-dependent transport mechanism.

The next data set relates to NCI-H82. The data set can be described thus: Neutral red growth inhibition. Format: cell-based, human. To be noted: NCI-H82, Lung, free base. The procedure:
as §1

The test system of another data set is CCRF-CEM. Description: Neutral red growth inhibition. Format: cell-based, human. The note with it: Leukemia, HCl salt. The method, then:
as §1

The test system of the next data set is HCT-15. The data set can be described thus: Neutral red growth inhibition. Format: cell-based, human. To be noted: HCT-15, Colon, free base. The procedure: as §1
The next data set relates to NCI-H460. Description: Neutral red growth inhibition. Format: cell-based, human. The note with it: NCI-H460, Lung, free base. The procedure:
as §1

Data set [3] has as its system panel of cultured human cell lines. The data set can be described thus: Neutral red growth inhibition, panel of cultured human cell lines. Format: cell-based. To be noted: five days continuous treatment, read-out: GI50 calculated for all cell lines. The procedure: as §1
Another data set is described as follows: 28-day study in rats. Format: in vivo.
The next data set deals with T1, COX I (Ovis aries, UniProt P05979).
T1 construct: COX-I purified from ram seminal vesicles; tissue Cayman Chemical; host or cells: ram seminal vesicles
The data set can be described thus: COX I inhibition. Format: biochemical, ram. The note with it: at 100 μM.

A short description of data set [4]: Single, escalating dose human safety study. Format: in vivo. The note with it: oral.
In a further data set the test system is LNCaP cells. The data set can be described thus: Histone-associated fragmented DNA (apoptosis) in prostate tumor cells. Format: cell-based, human. To be noted: 50 μM Compound B (free base), up to 4 days. The method, then: The androgen-sensitive prostate tumor cell line, LNCaP (from ATCC (Rockville, Md.)) was propagated under standard conditions using […] medium containing 5% fetal calve serum and 2 mM glutamine. Primary prostate epithelial cell cultures (PrEC) derived from normal prostate (from Clonetics Inc. (San Diego, Calif.)) were grown under the same conditions as the tumor cell line except a serum-free medium optimized for the growth of such cultures was used (Clonetics Inc). For the experiments, LNCaP or PrEC cells were seeded in 96 well plates at a density of 10,000 cells per well. After 24 hours, the cells were treated with either vehicle (0.1% DMSO) or 50 μM Compound B (free base) solubilized in DMSO. After various drug treatment times ([…]) the cells were lysed and processed for measurement of histone-associated DNA as an indicator of apoptotic cell death (see, Piazza et al., Cancer Research 57: 2452-2459, 1997).

Data set [5] in a line: Seven-day dose-range finding study in rats. To be noted: seven days.
Data set [6] deals with cGMP-specific PDE from HT29 cell extracts. The data set can be described thus: cGMP-specific PDE inhibition. Format: biochemical, human. The procedure:
(Thompson, W. J., Teraski, W. L., Epstein, P. M., Strada, S. J., Advances in Cyclic Nucleotide Research, 10:69-92, 1979, which is incorporated herein by reference). In brief, a solution of defined substrate ^3H-cGMP specific activity (0.2 μM; 100,000 cpm; containing 40 mM Tris-HCl (pH 8.0), 5 mM MgCl2 and 1 mg/mL BSA) is mixed with the drug to be tested in a total volume of 400 μl. The mixture is incubated at 30° C. for 10 minutes with isolated PDE of this invention. Reactions are terminated, for example, by boiling the reaction mixture for 75 seconds. After cooling on ice, 100 μl of 0.5 mg/mL snake venom (O. Hannah venom available from Sigma) is added and incubated for 10 minutes at 30° C. This reaction is then terminated by the addition of an alcohol, e.g. 1 mL of 100% methanol. Assay samples are applied to 1 mL Dowex 1-X8 column; and washed with 1 mL of 100% methanol. The amount of radioactivity in the breakthrough and the wash from the column is combined and measured with a scintillation counter. The degree of phosphodiesterase inhibition is determined by calculating the amount of radioactivity in drug-treated reactions and comparing against a control sample (a reaction mixture lacking the tested compound but with drug solvent).

T1 sequence (P05979 25-600): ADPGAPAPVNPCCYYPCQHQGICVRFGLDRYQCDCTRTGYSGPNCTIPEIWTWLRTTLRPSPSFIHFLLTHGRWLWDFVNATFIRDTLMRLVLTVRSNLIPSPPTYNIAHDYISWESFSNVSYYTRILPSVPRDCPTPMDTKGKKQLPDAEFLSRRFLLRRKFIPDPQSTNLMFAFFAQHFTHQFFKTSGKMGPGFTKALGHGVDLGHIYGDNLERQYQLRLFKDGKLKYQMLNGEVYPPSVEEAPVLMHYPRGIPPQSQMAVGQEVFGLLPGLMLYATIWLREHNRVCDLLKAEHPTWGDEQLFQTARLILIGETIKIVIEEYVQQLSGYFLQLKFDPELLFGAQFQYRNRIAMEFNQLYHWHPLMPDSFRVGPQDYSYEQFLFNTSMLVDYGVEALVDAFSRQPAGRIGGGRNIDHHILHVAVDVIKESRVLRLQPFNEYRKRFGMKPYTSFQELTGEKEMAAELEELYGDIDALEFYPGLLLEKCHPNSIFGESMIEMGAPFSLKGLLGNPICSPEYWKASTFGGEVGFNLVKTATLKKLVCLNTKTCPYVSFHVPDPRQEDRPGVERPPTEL

On to `CC1=C(CC(=O)O)c2cc(F)ccc2/C1=C\c1ccc(S(C)(=O)=O)cc1` [exisulind, 5-fluoro-2-methyl-1-(p-methylsulfonylbenzylidene)-3-indenylacetic acid], for which the “PKG activity relative to control” value in data set [1] was “phosphorylated to a greater extent than the corresponding controls”. Moreover, the “median number of polyps” value is recorded as 18 polyps/year in data set [2] (entire 12 months of the study) and 9 polyps/year in data set [2] (first six months of the study).
For `CC1=C(CC(=O)NCc2ccccc2)c2cc(F)ccc2/C1=C\c1ccncc1.Cl` [Compound B, (Z)-5-fluoro-2-methyl-(4-pyridylidene)-3-(N-benzyl)indenylacetamide hydrochloride], the GI50 (as a rule, the concentration at which growth is held to half of that of the control) in the data set on SW-620 is 1700 nM; in the data set with NCI-H82, 1700 nM; in the data set with CCRF-CEM, 1400 nM; in the data set on HCT-15, 1700 nM; in the data set on NCI-H460, 1900 nM; in [3] it was 1000 to 2000 nM. For the same compound, the GI90 in the data set with SW-620 was 2500 nM; with NCI-H82, 5800 nM; in the data set with HCT-15, 3000 nM; in the data set on NCI-H460, 30000 nM. Moreover, the liver weights result in “28-day study in rats” (28 days, 2000 mg/kg/day) was “statistically significant increase in liver weights”. Also, in the data set “28-day study in rats” (28 days, 2000 mg/kg/day), the thyroid weights result is listed as “statistically significant increases in thyroid weights”. The clinical observations entry in the data set “28-day study in rats” (28 days, 50, 500 and 2000 mg/kg/day) is recorded as “no abnormal clinical observations attributed to Compound B”. Further, the “COX I inhibition” value on COX I was “less than 25%”. In [4], the side effects result was “no significant side effects at any dose”. In the data set with LNCaP cells, the “histone-associated fragmented DNA” value was “significant increase in fragmented DNA was detected after 24 hours of treatment”. For the same compound, in data set [5] (50 mg/kg/day), the signs of toxicity result is listed as “no observable signs of toxicity”. For the same compound, the treatment-related effects entry in data set [5] (500 mg/kg/day) is “an increase in absolute and relative liver weights in female rats”; in data set [5] (2000 mg/kg/day), “labored breathing and/or abnormal respiratory sounds, decreased weights gains and food consumption in male rats, and increased liver weights in female rats”. For the same compound, the midpoint of inhibition in [6], the IC50, lay at 680 nM.
